Experimental data as given in patent US11535597B2, “Photoreactive ligands and uses thereof” (The Scripps Research Institute, priority 2017, dated 2022).
Entries after “also recorded” stand apart in the source; their conditions may differ.

Legend:
cathepsin B (CTSB) = biological target: T1, cathepsin B (CTSB) (Homo sapiens, UniProt P07858); assay: Mapping and competition of FFF probe-modified peptide on cathepsin B (CTSB); type: binding; conditions: HEK293T cells co-treated with 9 (200 μM)
T1 construct: endogenous in cells; host or cells: HEK293T
Protocol: (§1) Preparation and analysis was adapted from methods previously reported. In brief, for global mapping of fragment probe-modified peptides, separate 10 cm dishes of cells were treated with probes (200-250 μM) in 3.0 mL of DMEM (serum-free) and (if applicable) competitor ligands, proteomes harvested and subjected to click chemistry conditions with either light or heavy isotopically labeled biotin-TEV-azide (10 μL of 5 mM stocks in DMSO, final concentration=100 μM), TCEP, ligand and CuSO4 as detailed above. The samples were allowed to react for 1 h at which point the samples were centrifuged (16,000 g, 5 min, 4° C.). The resulting pellets were sonicated in ice-cold methanol (500 μL) and the resuspended light- and heavy-labeled samples were then combined and centrifuged (16,000 g, 5 min, 4° C.). The pellets were then solubilized in PBS containing 1.2% SDS (1 mL) with sonication and heating (5 min, 95° C.). Samples were transferred to falcon tubes containing DPBS (5 mL), to which a 100 μL of streptavidin-agarose beads slurry was added. […]
(§2) The resulting probe-modified peptides were collected for MS analysis, which was performed as described above with differences in the salt bumps applied in the chromatographic gradients which in this case were 0%, 30%, 60%, 90% and 100% NH4OAc (500 μM). […] The isoTOP ratios for probe labeled peptides were quantified using the in-house software CIMAGE. […]

[1] = system: proteins in HEK293T cells; assay: MS-based mapping of FFF probe-modified peptides (isoTOP, sites of labeling); type: binding, human
Protocol: (§3) Preparation and analysis was adapted from methods previously reported. In brief, for global mapping of fragment probe-modified peptides, separate 10 cm dishes of cells were treated with probes (200-250 μM) in 3.0 mL of DMEM (serum-free) and (if applicable) competitor ligands, proteomes harvested and subjected to click chemistry conditions with either light or heavy isotopically labeled biotin-TEV-azide (10 μL of 5 mM stocks in DMSO, final concentration=100 μM), TCEP, ligand and CuSO4 as detailed above. The samples were allowed to react for 1 h at which point the samples were centrifuged (16,000 g, 5 min, 4° C.). The resulting pellets were sonicated in ice-cold methanol (500 μL) and the resuspended light- and heavy-labeled samples were then combined and centrifuged (16,000 g, 5 min, 4° C.). The pellets were then solubilized in PBS containing 1.2% SDS (1 mL) with sonication and heating (5 min, 95° C.). Samples were transferred to falcon tubes containing DPBS (5 mL), to which a 100 μL of streptavidin-agarose beads slurry was added. After incubation, the beads (3 hr) were pelleted by centrifugation (1,400 g, 3 min) and were washed (2×10 mL PBS and 2×10 mL water). The beads were transferred to eppendorf tubes with 1 mL DPBS, centrifuged (1,400 g, 3 min), and resuspended in PBS containing 6 M urea. To this was added 10 mM DTT (25 μL of a 200 mM stock in water) and the beads were incubated at 65° C. for 15 mins. 20 mM iodoacetamide (25 μL of a 400 mM stock in water) was then added and allowed to react at 37° C. for 30 mins with shaking. The bead mixture was diluted with 900 μL PBS, pelleted by centrifugation (1,400 g, 3 min), and resuspended in 200 μL 2M urea (DPBS) containing trypsin and CaCl2 as described above. The beads were separated from the digest by centrifugation (1,000 g, 1 min), washed (2×1 mL PBS and 2×1 mL water) and then transferred to fresh eppendorfs with 1 mL water. The washed beads were washed once further in 150 μL TEV buffer (50 mM Tris, pH 8, 0.5 mM EDTA, 1 mM DTT) by centrifugation (1,400 g, 3 min) and the resuspended in 150 μL TEV buffer. 5 μL TEV protease (80 μM) was added and the reactions were rotated overnight at 29° C. The TEV digest was separated from the beads by centrifugation (1,400 g, 3 min) and the beads were washed once with water (100 μL). The samples were then acidified to a final concentration of 5% (v/v) formic acid and stored at −80° C. prior to analysis.
The resulting probe-modified peptides were collected for MS analysis, which was performed as described above with differences in the salt bumps applied in the chromatographic gradients which in this case were 0%, 30%, 60%, 90% and 100% NH4OAc (500 μM). The protein identification searches of the MS data were performed with the following changes applied to identify the peptides modified with the corresponding fragment probe and the cleaved TEV tag. All amino acids were considered as possible residues for modification. To facilitate the computational searches, sets of up to 3 amino acids were searched using ProLuCID and filtered with DTASelect as described above. […] The isoTOP ratios for probe labeled peptides were quantified using the in-house software CIMAGE.
For each protein in the site-of-labeling dataset, the UniProtKB accession number was used to map and collect relevant structures from the RCSB Protein Data Bank (PDB) fulfilling the following criteria: structures determined by X-ray crystallography, wild-type protein, Homo sapiens as the sole source organism. […] Fpocket 2.0 was used to detect potential binding pockets for the resultant structures with all parameters set at recommended default. Pockets with volume less than 500 Å^3 were removed from output prior to further analysis. Residues surrounding fpocket predicted binding pockets for each protein were collected to determine the number of residues overlapping with isoTOP peptides.

PTGR2 = PTGR2 (Homo sapiens, UniProt Q8N8N7); assay: Mapping and competition of FFF 8-modified tryptic peptides on PTGR2; type: binding; conditions: near the active site
Protocol: as §1, §2

α-galactosidase (GLA) = biological target: T2, α-galactosidase (GLA) (Homo sapiens, UniProt P06280); assay: Mapping of FFF probe-modified peptides on α-galactosidase (GLA); type: binding
T2 construct: endogenous in cells; host or cells: human cells (HEK293T; a subset of probes also in K562)
T2 sequence (P06280 32-429): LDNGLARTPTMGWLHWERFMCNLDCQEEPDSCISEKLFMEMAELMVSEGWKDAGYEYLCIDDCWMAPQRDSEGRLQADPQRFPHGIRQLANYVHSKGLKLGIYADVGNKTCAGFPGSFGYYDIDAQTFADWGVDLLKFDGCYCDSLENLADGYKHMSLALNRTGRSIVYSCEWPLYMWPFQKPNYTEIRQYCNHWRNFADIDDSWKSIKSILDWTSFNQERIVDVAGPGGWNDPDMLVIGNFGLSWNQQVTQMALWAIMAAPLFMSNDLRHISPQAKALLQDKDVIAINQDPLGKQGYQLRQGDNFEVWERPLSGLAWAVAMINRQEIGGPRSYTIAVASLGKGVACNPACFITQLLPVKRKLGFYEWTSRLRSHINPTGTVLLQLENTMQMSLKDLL
Protocol: as §3, §2

Chain of PTGR2 (Q8N8N7 whole entry): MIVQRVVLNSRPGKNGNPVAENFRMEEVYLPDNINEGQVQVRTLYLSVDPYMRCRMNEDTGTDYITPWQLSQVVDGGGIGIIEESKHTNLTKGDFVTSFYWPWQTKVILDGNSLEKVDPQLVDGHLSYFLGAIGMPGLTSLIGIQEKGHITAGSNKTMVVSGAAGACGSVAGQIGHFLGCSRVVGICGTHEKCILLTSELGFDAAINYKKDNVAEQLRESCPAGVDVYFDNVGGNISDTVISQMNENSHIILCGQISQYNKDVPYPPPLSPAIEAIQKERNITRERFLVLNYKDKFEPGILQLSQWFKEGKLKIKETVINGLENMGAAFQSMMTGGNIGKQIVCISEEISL

## CC(NC(=O)[C@H](Cc1ccccc1)NC(=O)OCc1ccccc1)C(=O)CF (stereo partly shown) [Z-FA-FMK, reference compound]
Cathepsin B (CTSB)
  blockade of probe 9 interaction with CTSB: blocked

## C#CCCC1(CCC(=O)N2CCC(c3ccccc3)CC2)N=N1 [probe 8, 3-(3-(But-3-yn-1-yl)-3H-diazirin-3-yl)-1-(4-phenylpiperidin-1-yl)propan-1-one]
[1]; Accession P09651, residues of probe-labeled peptide, family Channels, Transporters, Receptors
  Labeled Peptide of HNRNPA1 Heterogeneous nuclear ribonucleoprotein A1: 233-265
[1]; Accession P16403, residues of probe-labeled peptide, family Transcription factors, Regulators
  Labeled Peptide of HIST1H1C Histone H1.2: 65-75
[1]; MKI67 (P46013), residues of the probe-labeled peptide
  Labeled Peptide: 648-659
[1]; protein BAG6 (P46379), residues of probe-labeled peptide
  Labeled Peptide: 332-344
[1]; protein CCT8 T-complex protein 1 subunit theta (P50990), residues of probe-labeled peptide
  Labeled Peptide: 441-450
[1]; protein CDC37 Hsp90 co-chaperone Cdc37 (Q16543), residues of probe-labeled peptide
  Labeled Peptide: 287-307
[1]; protein DHX9 ATP-dependent RNA helicase A (Q08211), residues of probe-labeled peptide
  Labeled Peptide: 121-141
[1]; protein Q14683 SMC1A Structureal maintenance of chromosomes protein 1A
  Labeled Peptide: 1070-1086
[1]; residues of probe-labeled peptide on UBAP2L Ubiquitin-associated protein 2-like, Accession # Q14157
  Labeled Peptide: 239-257
PTGR2
  probe-modified tryptic peptides in PTGR2: aa 55-66; also recorded: aa 261-278

## C#CCCC1(CCC(=O)NCc2ccc3sccc3c2)N=N1 [probe 4, N-(Benzo[b]thiophen-5-ylmethyl)-3-(3-(but-3-yn-1-yl)-3H-diazirin-3-yl)propanamide]
[1]; Accession P53701, residues of probe-labeled peptide, family Enzymes
  Labeled Peptide of HCCS Cytochrome c-type heme lyase: 200-210
[1]; HNRNPK Heterogeneous nuclear ribonucleoprotein K, residues of probe-modified peptide
  Labeled Peptide: 423-433
[1]; IDE Insulin-degrading enzyme, residues of probe-modified peptide
  Labeled Peptide: 312-324
[1]; NUP93 (Q8N1F7), residues of the probe-labeled peptide
  Labeled Peptide: 539-545
[1]; P07195 LDHB L-lactate
  Labeled Peptide: 234-244
[1]; P22830 FECH Fen-ochelatase, mitochondrial
  Labeled Peptide: 254-272
[1]; protein BCAS2 (O75934), residues of probe-labeled peptide
  Labeled Peptide: 137-151
[1]; protein CPT2 Carnitine O-palmitoyltransferase 2, mitochondrial (P23786), residues of probe-labeled peptide
  Labeled Peptide: 478-495
[1]; protein EMD Emerin (P50402), residues of probe-labeled peptide
  Labeled Peptide: 212-221
[1]; protein FECH Ferrochelatase, mitochondrial (P22830), residues of probe-labeled peptide
  Labeled Peptide: 254-272
[1]; protein FECH Ferrochelatase, mitochondrial, residues of probe-labeled peptide
  Labeled Peptide: 254-272
[1]; protein LDHB L-lactate dehydrogenase B chain, residues of the probe-labeled peptide
  Labeled Peptide: 234-244
[1]; protein P42166 TMPO Lamina-associated polypeptide 2, isoform alpha
  Labeled Peptide: 621-637
[1]; protein PGRMC2 Membrane-associated progesterone receptor component (O15173)
  Labeled Peptide: 136-149
[1]; protein PSMD11 26S proteasome non-ATPase regulatory subunit 11 (O00231)
  Labeled Peptide: 298-304
[1]; protein Q14166 TTLL12
  Labeled Peptide: 254-287
[1]; residues of probe-labeled peptide on TUBB6 Tubulin beta-6 chain, Accession # Q9BUF5
  Labeled Peptide: 217-241
α-galactosidase (GLA); Accession P06280, residues of probe-labeled peptide, family Enzymes
  Labeled Peptide of GLA Alpha-galactosidase A: 68-82
α-galactosidase (GLA); P06280 GLA Alpha-galactosidase A
  Labeled Peptide: 68-82
α-galactosidase (GLA); protein GLA Alpha-galactosidase A, residues of probe-labeled peptide
  Labeled Peptide: 68-82
